{"source": "patent US9796674B2", "about": "“Benzyl urea derivatives for activating TGF-beta signaling” (THE BOARD OF TRUSTEES OF THE LELAND STANFORD JUNIOR …, priority 2013, dated 2017)", "key": {"N2A-APP-Swe cells": {"system": "N2A-APP-Swe cells", "assay": "Neurotoxicity of macrophage-conditioned medium (MTS assay)", "type": "cell-based, mouse", "method": "FIGS. 4A and 4B present data from experiments in which human macrophages differentiated from THP-1 monocytic cell lines and mouse J774A.1 macrophages were incubated with fibrillar Aβ in the absence or presence of compound (2 or 5 μM) for 24 h. Conditioned medium was harvested and the remaining Aβ was quantified by Aβ ELISA. The collected medium (FIGS. 4C-4D) was added to N2A-APP-Swe cells (mouse Neuro-2A neuroblastoma cells stably expressing Swedish APP695) and incubated for 24 h. Neurotoxicity was quantified by an MTS Assay.\nMouse J774A.1 macrophages and human macrophages that were differentiated from THP-1 monocytic cell lines were treated with fibrillar Aβ42 in the absence or presence of SRI-011382 or its derivative compounds (2, 5, or 10 μM) for 24 h. Conditioned medium was harvested and the remaining Aβ42 that was not phagocytosed by macrophages was quantified by Aβ42 ELISA kit (Invitrogen). Data was normalized to control medium containing the input amount of Aβ42. Neurotoxicity induced by fibrillar Aβ42 in the conditioned medium was then assessed by incubating Neuro-2a neuroblastoma cells with conditioned medium for 24 h followed by MTS-based viability assay. Data was normalized to control cells without fibrillar Aβ42 treatment."}, "[1]": {"system": "CYPs 1A2, 2B6, 2C9, 2C19, 2D6, 3A4", "assay": "CYP inhibition in human liver microsomes", "type": "in vitro ADME", "conditions": "1 and 10 μM, significant = >30% reduction in activity", "from_the_text": "CYP Inhibition: SRI-011381 was screened for CYP inhibition, an indicator of potential drug interactions. […] Thus, this compound is unlikely to cause clinically relevant interactions due to effects on co-administered drugs metabolized by these hepatic enzymes.\nDrug Interactions (GYP inhibition): GYPs are major enzymes involved in drug metabolism and this assay is used to screen the inhibitory potential of test compounds on in vitro CYP activity, and help predict potential drug interactions due to inhibition of metabolism of one drug by another. This assay was performed by incubating test compounds with human liver microsomes and model CYP substrates (i.e., phenacetin (CYP1A2), bupropion (CYP2B6), diclofenac (CYP2C9), mephenytoin (CYP2C19), bufuralol (CYP2D6), testosterone (CYP3A4), and midazolam (CYP3A4)). Control incubations containing compounds known to inhibit specific CYPs were also included and incubated in the same manner as the test compounds (i.e., furafylline (CYP1A2), thioTEPA (CYP2B6), sulfaphenazole (CYP2C9), tranylcypromine (CYP2C19), quinidine (CYP2D6), and ketoconazole (CYP3A4)). The data is expressed as ‘% of control’, where the controls consist of the model substrates incubated with microsomes (no test compounds or inhibitors)."}, "Sprague Dawley rats": {"system": "Sprague Dawley rats", "assay": "7-Day oral gavage dose range finding and toxicokinetic study in rats", "type": "in vivo", "method": "7-Day oral gavage dose range finding and toxicokinetic study of SRI-011381 in male and female Sprague Dawley rats: The objective of this study was to determine maximum tolerated dose (MTD), characterize the potential toxicity, and estimate the dose dependence of exposure to SRI-011381 in adult male and female Sprague Dawley rats following daily oral gavage (po) dose administration for 7 consecutive days. The doses studied were 2, 10, and 50 mg/kg, formulated in 15% Solutol/85% sterile water and administered in the volume of 10 ml/kg.\nSpecies and Strain: Sprague Dawley rat; Route of Administration: Oral (po); Frequency: Daily administration for 7 consecutive days; Dosing Volume: 10 ml/kg; Dose volumes will be calculated based on the animal's most recent body weight; Duration of In-life Phase: 8 days; Endpoints: clinical observations, mortality, body weights, clinical chemistry, hematology, gross pathology, organ weights, histopathology, toxicokinetics."}, "Solubility": {"assay": "Solubility", "type": "physicochemical", "conditions": "aqueous buffer; in PBS"}, "GFAP-luc mice": {"system": "GFAP-luc mice", "assay": "Kainic acid lesion in GFAP-luc mice, bioluminescence", "type": "in vivo, mouse", "conditions": "kainic acid 20 mg/kg", "method": "FIGS. 5A-5B show GFAP-luc mice (2-month-old) lesioned with kainic acid (20 mg/kg). Bioluminescence was recorded longitudinally at indicated time points in each mouse. Representative images showing increased bioluminescence signals over the brain after kainic acid injury (left panel) and the reduction by SRI-011381 (381) treatment (right panel) (FIG. 5A). Bioluminescence is expressed as fold induction over baseline, which was measured 1 day before kainic acid administration for each mouse (FIG. 5B). Bars are mean±SEM (n=4-7 mice). The mice were sacrificed 5 days later. Brains were removed, fixed with paraformaldehyde, sectioned and stained with cresyl violet, or immunohistochemical methods. […] Bars are mean±SEM (n=4-7 mice/group) and the asterisk signifies P<0.05 by unpaired t test."}, "[2]": {"conditions": "po 2, 10, 50 mg/kg daily for 7 days"}}}
{"smiles": "O=C(NC1CCCCC1)N(Cc1ccccc1)CC1CCNCC1", "note": "[SRI-011381, 1-Benzyl-3-cyclohexyl-1-(piperidin-4-ylmethyl)urea]", "values": [{"measurement": "fibrillar Aβ42-induced neurotoxicity", "setting": "N2A-APP-Swe cells; medium conditioned by J774A.1 macrophages", "result": "protect human neuronal cells from fibrillar Aβ42-induced neurotoxicity"}, {"measurement": "fibrillar Aβ42-induced neurotoxicity", "setting": "N2A-APP-Swe cells; medium conditioned by THP-1 macrophages", "result": "protect human neuronal cells from fibrillar Aβ42-induced neurotoxicity"}, {"measurement": "CYP inhibition", "setting": "[1]", "result": "did not inhibit any CYP activity significantly"}, {"measurement": "LDH", "setting": "Sprague Dawley rats; high dose group (50 mg/kg)", "result": "significantly lower in male rats of the high dose group"}, {"measurement": "gender related differences in exposure", "setting": "Sprague Dawley rats; male and female rats", "result": "nor were gender related differences observed"}, {"measurement": "exposure after 7 doses compared to the first dose", "setting": "Sprague Dawley rats; po 2, 10, 50 mg/kg", "result": "no apparent change in exposure"}, {"measurement": "alkaline phosphatase (ALP) levels", "setting": "Sprague Dawley rats; [2]", "result": "significantly elevated in all treatment groups in the female rats, though not in males"}, {"measurement": "body weight", "setting": "Sprague Dawley rats; [2]", "result": "no statistically significant differences in body weight"}, {"measurement": "clinical observations", "setting": "Sprague Dawley rats; [2]", "result": "appeared normal"}, {"measurement": "hematology parameters", "setting": "Sprague Dawley rats; [2]", "result": "no significant changes in any hematology parameters"}, {"measurement": "exposure based on plasma collected 1 h after dose", "setting": "Sprague Dawley rats; po 2, 10, 50 mg/kg, Day 1 and 7", "result": "increased in a dose dependent fashion"}, {"measurement": "solubility", "setting": "Solubility", "result": 5200, "unit": "µg/mL"}, {"measurement": "bioluminescence signals over the brain after kainic acid injury", "setting": "GFAP-luc mice", "result": "reduction"}]}
